Experimental data from paper PMC12254070, “Antimicrobial Peptides Design Using Deep Learning and Rational Modifications: Activity in Bacteria, Candida albicans, and Cancer Cells” (Current Microbiology, 2025).
Where two headings read alike, the source gives them in different places. Ends that are not written are not given here.

Legend:
[1] = test system: C. albicans ATCC 10231; type: cell-based, Candida albicans
Experimental: (§1) The antimicrobial activity of the peptides was evaluated with S. aureus ATCC 25923, P. aeruginosa ATCC 27853, Escherichia coli ATCC 25922, Klebsiella quasipneumoniae ATCC 700603, and the yeast C. albicans ATCC 10231. The minimum inhibitory concentration (MIC) was determined following the protocol described by Wiegand et al.. Briefly, bacteria were grown overnight in Mueller–Hinton (MH) medium at 37 °C and 90 rpm, while C. albicans was grown at 30 °C in MH supplemented with 30% YPD (yeast extract, peptone, dextrose). The concentration of bacteria and C. albicans was adjusted to 10^6 CFU/mL. […] Microorganism growth was measured hourly at 600 nm for 24 h, with a 10-s shaking cycle, on a Multiskan Go microplate reader (Thermo Scientific). The experiments with bacteria were incubated at 37 °C, whereas those with C. albicans were incubated at 30 °C. Each peptide was evaluated by duplicate on 2 different days. The MIC was estimated as the minimum peptide concentration at which the microorganism had no growth. […] In all assays, untreated culture medium without peptides was included as a negative control to account for basal microbial growth. All assays were performed in two independent experiments, each conducted with two technical replicates (n = 4 per condition).

[2] = test system: S. aureus ATCC 25923; type: cell-based, Staphylococcus aureus
Experimental: as §1

[3] = test system: P. aeruginosa ATCC 27853; type: cell-based, Pseudomonas aeruginosa
Experimental: as §1

[4] = test system: Escherichia coli ATCC 25922; type: cell-based
Experimental: as §1

[5] = test system: Klebsiella quasipneumoniae ATCC 700603; type: cell-based
Experimental: as §1

[6] = test system: human red blood cells; settings: red cells of human, 3 h
[7] = test system: human breast adenocarcinoma (MCF-7) cells; type: cell-based
Experimental: (§2) The methodology proposed by Zhang et al. […] After 24 h of incubation, the wells were washed twice with PBS, and 10 μL of MTT solution was added to each well at a final concentration of 0.5 mg/mL, and the cell cultures were incubated for 4 h at 37 °C. The solution was removed from each well, and the formazan crystals were dissolved with 100 μL of Sodium Dodecyl Sulfate (0.01 M). After 16 h, absorbance was measured with a MultiSkan Go microplate reader at 570 nm. The untreated wells were used as a negative control, while wells treated with DMSO were used as a positive control for cytotoxicity. The percent viability was determined using the following equation. %viability=[…]-×100% where ABSM is the average absorbance with the treatment and ABSC is the absorbance obtained in the controls (positive and negative).

[8] = test system: human lung adenocarcinoma (A549) cells; type: cell-based
Experimental: as §2

[9] = test system: human red blood cells; experiment: Hemolysis assay; settings: human erythrocytes 1:10 in 0.9% PBS, 50 µM peptide, 37 °C, 3 h, OD 545 nm, 0.1% Triton X-100 = positive control, three replicate wells
[10] = Mueller–Hinton, 10^6 CFU/mL, 37 °C, 24 h, OD 600 nm, minimum concentration with no growth, n = 4
[11] = minimum bactericidal concentration, value in brackets

Sequence	IC50 ([1]; ATCC 10231, 24 h) [µM]	MFC C.a ([1]; ATCC 10231, 24 h)	IC50 ([2]; ATCC 25923, 24 h) [µM]	MBC S.a ([2]; ATCC 25923, 24 h)	MIC S.a ([2]; ATCC 25923, 24 h)	IC50 ([3]; ATCC 27853, 24 h) [µM]	MBC P.a ([3]; ATCC 27853, 24 h) [µM]	MIC P.a ([3]; ATCC 27853, 24 h) [µM]	IC50 ([4]; ATCC 25922, 24 h) [µM]	MBC E.c ([4]; ATCC 25922, 24 h) [µM]	MIC E.c ([4]; ATCC 25922, 24 h) [µM]	IC50 ([5]; ATCC 700603, 24 h) [µM]	MBC K.q ([5]; ATCC 700603, 24 h)	MIC K.q ([5]; ATCC 700603, 24 h)	% Hemolysis at 50 µM [6] [%]	IC50 ([7]; 24 h) [µM]	IC50 ([8]; 24 h) [µM]	MHC (minimum hemolytic concentration) [6] [µM]	further results
AGLARKWLKLPIGVLAR [OrP1]	14.8	49.7 µM	24.2	> 99.3 (> 99.3) µM	> 99.3 (> 99.3) µM	14.8	99.3	49.7	5.8	12.4	12.4	22.4	> 99.3 µM	49.7 µM	1.2	9.1	21.7	–	–
AGLKKLAKKLGKVVL [OrP3]	9.6	27.8 µM	10.1	27.8 µM	27.8 µM	9.6	13.9	13.9	1.6	3.5	3.5	6	27.8 µM	13.9 µM	0.0	23.2	33.1	–	–
AIVKKIGKIWKNFIK [VeP2M]	5.9	31.3 µM	7.9	31.3 µM	15.6 µM	5.9	15.6	7.8	1.6	3.9	3.9	9.2	62.6 µM	31.3 µM	7.1	21.9	34.9	68.64	–
AKLLGKLLRKKIGVL [OrP4]	23.3	125.3 µM	–	> 125.2 (> 125.2) µM	> 125.2 (> 125.2) µM	23.3	31.3	15.7	14.8	62.6	31.3	29	> 125.2 (> 125.2) µM	–	–	> 100	–	28.98	–
FKKLLKFLKWLF [VeP1]	31.7	> 113.1 µM	2.1	3.5 µM	–	31.7	56.6	56.6	5.8	14.1	–	5.9	28.3 µM	28.3 µM	–	–	–	4.25	–
FKLFCVAKRLPKKVL [OrP9]	44.1	> 119.2 (> 119.2) µM	–	> 119.2 (> 119.2) µM	> 119.2 (> 119.2) µM	44.1	29.8	14.9	4.9	7.5	7.5	93	> 119.2 (> 119.2) µM	> 119.2 (> 119.2) µM	–	> 100	–	–	–
IGKVWKVAKKLIKI [OrP9M]	4.9	–	4.5	31.1 µM	15.6 µM	4.9	1.9	–	3.2	7.8	7.8	3.8	15.6 µM	15.6 µM	–	< 6.25	25.1	–	–
IKKWGKVLKKLI [VeP1M]	–	–	–	–	–	–	–	–	–	–	–	–	–	–	–	–	–	–	MIC C.a ([1]; MH + 30% YPD, 10^6 CFU/mL, 30 °C, 24 h, OD 600 nm, minimum concentration with no growth, n = 4): 15.2 µM; IC50 ([1]; half inhibitory concentration against the microorganism, Table S4, dose-response curves, read-out: IC50 C.a.): 10 µM; MFC C.a ([1]; minimum fungicide concentration, value in brackets): 30.3 µM; % Hemolysis at 50 µM [9]: 0.0%; MIC S.a [2, 10]: 15.2 µM; IC50 ([2]; half inhibitory concentration against the microorganism, Table S4, dose-response curves, read-out: IC50 S.a.): 8.3 µM; MBC S.a [2, 11]: 15.2 µM; MIC P.a [3, 10]: 3.8 µM; IC50 ([3]; half inhibitory concentration against the microorganism, Table S4, dose-response curves, read-out: IC50 P.a.): 10 µM; MBC P.a [3, 11]: 3.8 µM; MIC E.c [4, 10]: 7.6 µM; IC50 ([4]; half inhibitory concentration against the microorganism, Table S4, dose-response curves, read-out: IC50 E.c.): 3.7 µM; MBC E.c [4, 11]: 7.6 µM; MIC K.q [5, 10]: 30.4 µM; IC50 ([5]; half inhibitory concentration against the microorganism, Table S4, dose-response curves, read-out: IC50 K.q.): 6.8 µM; MBC K.q [5, 11]: 30.4 µM; IC50 ([7]; MTT, 24 h incubation with peptide, triplicate, non-linear regression, read-out: IC50 MCF-7): 13.6 µM; IC50 ([8]; MTT, 24 h incubation with peptide, triplicate, non-linear regression, read-out: IC50 A549): 35 µM
IKPVVKGIKGVKNFFK [VeP2]	23.7	> 102.9 µM	53.2	> 102.9 µM	51.5 µM	21.9	102.9	51.5	22.8	103	103	30.7	> 103 µM	103 µM	3.0	34.2	69.6	–	–
LAKRWLKLLGKLAK [OrP1M]	10.1	31.6 µM	2.3	3.9 µM	3.9 µM	10.1	3.9	3.9	1.5	1.9	–	4.5	15.8 µM	15.8 µM	–	< 6.25	21.1	–	–
LKRLAKLLKKWIKA [OrP4M]	9.4	28.2 µM	3.4	14.1 µM	7.1 µM	9.4	3.5	3.5	2.2	3.5	3.5	3.3	14.1 µM	7.1 µM	–	< 6.25	–	59.91	–
